The values below come from US20100226931A1, “Compounds for immunopotentiation” (priority 2004, published 2010).

In turn, `Clc1ccc(Nc2nnc(Cc3ccncc3)c3ncccc23)cc1` displayed a melting point of 220 to 222 °C.
